For data set [1] the following is noted: cited from earlier work.
Data set [2] can be described thus: Total PFC concentrations in maternal and cord sera by HPLC-MS/MS. The format is in vivo, human. The protocol:
Blood collection. Samples (n = 20) analyzed in this study are a subset of the Chemicals, Health and Pregnancy (CHirP) cohort recruited in 2007–2008 in Vancouver (BC, Canada) ([Webster et al. 2011]). All participants provided informed consent. Laboratory personnel collected blood samples from pregnant volunteers in Vancouver at 15 weeks of gestation, and samples of cord blood (n = 20) were collected at delivery. After serum separation, all samples were stored at –80°C. Ethical clearance was obtained from the research ethics boards of the University of British Columbia, the University of Alberta, Health Canada, and the three participating hospitals.
Serum preparation. The method of [Kuklenyik et al. (2004)] was adapted for the extraction of PFCs from serum using a Rapid Trace system (Caliper Life Sciences, Hopkinton, MA, USA). The solid-phase extraction cartridge (Oasis-HLB, Waters, Milford, MA, USA; 60 mg/3 mL) was conditioned with 2 mL methanol followed by 2 mL of 0.1 M formic acid. Serum was prepared for extraction by mixing 3 mL of 0.1 M formic acid with 1.0 mL serum. After the addition of mass-labeled internal standards (10 ng each), the mixture was vortexed and sonicated for 20 min. Prepared serum was added to the column and washed successively with 3 mL of 0.1 M formic acid, 6 mL of 50% 0.1 M formic acid/50% methanol, and 1 mL of 1% ammonium hydroxide. The cartridge was drained by vacuum, and PFCs were eluted with 1.0 mL of 1% ammonium hydroxide in acetonitrile. The eluate was concentrated to 100 μL followed by the addition of 200 μL of 90% 20 mM acetic acid in 10% methanol. Method blanks containing calf serum, a calf serum sample spiked at 0.5 ng/mL of each PFC, and a human serum sample spiked at 10 ng/mL were analyzed with the study samples.
Total PFC analysis. For total PFC concentrations, separation was by HPLC on a 150-mm Synergi Hydro-RP C-18 column (Phenomenex, Torrance, CA, USA). Gradient elution at 600 μL/min used A [20 mM ammonium acetate (pH 4) in water] and B (methanol) mobile phases. Initial conditions were 60% A for 1 min, ramped to 20% A by 3 min, a 5-min hold, an increase to 100% B by 8.5 min, and a hold until 14 min, at which time initial conditions were reestablished. MS/MS data were collected on an Applied Biosystems API 3000 mass spectrometer (Applied Biosystems, Carlsbad, CA, USA) using electrospray ionization in negative-ion mode [for mean recoveries of total PFCs in serum and dust, see Supplemental Material, Table 1 (http://dx.doi.org/10.1289/ehp.1003265)].

Data set [3] in a line: Transplacental transfer efficiency (TTE): cord serum at delivery divided by maternal serum concentration, present study. The format is in vivo, human. The conditions noted are these: for Mean cord:maternal serum concentration: Present study.
[4] abbreviates: cord serum at delivery / maternal serum at 15 weeks of gestation.

The values that follow come from publication PMC3226492, “Isomer Profiles of Perfluorochemicals in Matched Maternal, Cord, and House Dust Samples: Manufacturing Sources and Transplacental Transfer” (Environmental Health Perspectives, 2011).

The structures appear in SMILES notation. Like-named read-outs stand apart in the source and are kept apart here.

With `O=C(O)C(F)(F)C(F)(F)C(F)(F)C(F)(F)C(F)(F)C(F)(F)C(F)(F)F` [Total PFOA, perfluorooctanoate], the “Mean cord:maternal serum concentration” value is 0.81 in data set [1] (Canada, 2004–2005, n 101, ref Monroy et al. 2008); 0.55 in data set [1] (Denmark, 1996–2002, n 50, maternal serum sampled in the first trimester, ref Fei et al. 2007); 0.68 in data set [1] (Denmark, 1996–2002, n 50, maternal serum sampled in the second trimester, ref Fei et al. 2007); 0.72 in data set [1] (Faroe Islands, 2000, n 12, ref Needham et al. 2011); 1.26 in data set [1] (Germany, 2003, n 11, ref Midasch et al. 2007); 0.70 in data set [1] (Germany, 2007–2009, n 27, ref Fromme et al. 2010). For the same molecule, the “Mean cord:maternal serum concentration” value is reported as 0.69 in data set [1] (Korea, 2007, n 20, ref Kim et al. 2011); 0.71 in data set [1] (South Africa, 2005–2006, n 58, ref Hanssen et al. 2010); 0.61 in data set [3] (Canada, 2007, n 20, maternal serum sampled in the second trimester); 0.71 in data set [3] (TTE adjusted from 15 weeks to time of delivery (~ 40 weeks) using data from Monroy et al. (2008)). In data set [2] (cord serum at delivery), the “mean concentration in cord serum” value is recorded as 1.1 ng/mL. Moreover, the “mean concentration in maternal serum” value in data set [2] (maternal serum, 15 weeks of gestation) was 1.8 ng/mL. For the same molecule, in data set [3] (setting [4]), the “TTE calculated from cord:maternal serum concentrations, arithmetic mean” value is reported as 0.61. The “TTE calculated from cord:maternal serum concentrations, maximum” value in data set [3] (setting [4]) is 0.96. Also, in data set [3] (setting [4]), the “TTE calculated from cord:maternal serum concentrations, median” value is reported as 0.63. In addition, in data set [3] (setting [4]), the “TTE calculated from cord:maternal serum concentrations, minimum” value was 0.32.
